Test results from patent US20260132140A1, “IMIDAZOLYL-AMINO-PYRAZINE-CARBONITRILS AS CHK-1 INHIBITORS” (BenevolentAI Bio Limited, priority 2022, published 2026).

Tests used:
RSK4 = target: T1, RSK4 (Homo sapiens, UniProt Q9UK32); test: RSK1-4 kinase assay (Eurofins KinaseProfiler, radiometric): RSK4; assay type: biochemical; conditions: approximately ATP Km
T1 construct: purchased Eurofins (KinaseProfiler service)
From the text: (§1) The radiometric kinase activity assays were run at approximately the ATP Km for each kinase and the IC50 data is shown in Table 24.

human Chk1 kinase = target: T2, human Chk1 kinase (Homo sapiens, UniProt O14757); test: biochemical
T2 sequence (O14757 1-476): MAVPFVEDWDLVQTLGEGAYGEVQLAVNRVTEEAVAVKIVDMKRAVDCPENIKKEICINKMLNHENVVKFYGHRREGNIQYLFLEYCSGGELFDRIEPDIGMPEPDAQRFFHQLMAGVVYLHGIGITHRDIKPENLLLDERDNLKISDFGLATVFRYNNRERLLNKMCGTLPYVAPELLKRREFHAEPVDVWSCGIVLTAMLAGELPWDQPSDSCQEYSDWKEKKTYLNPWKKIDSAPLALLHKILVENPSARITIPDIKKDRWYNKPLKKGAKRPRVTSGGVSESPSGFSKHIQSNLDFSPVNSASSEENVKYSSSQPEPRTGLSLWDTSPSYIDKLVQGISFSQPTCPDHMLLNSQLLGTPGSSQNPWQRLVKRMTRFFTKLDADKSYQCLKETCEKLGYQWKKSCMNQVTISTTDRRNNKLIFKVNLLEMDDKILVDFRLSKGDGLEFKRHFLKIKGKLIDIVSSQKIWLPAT

[1] = system: 373 human wild-type kinases; test: Kinome selectivity, Eurofins KinaseProfiler kinase screen; assay type: biochemical; conditions: panel of 373 human wild-type kinases, approximately ATP Km, top concentration 10 μM
From the text: The radiometric kinase activity assays were run at approximately the ATP Km for each kinase.

[2] = Determination of CNS penetration in vivo, unbound brain to plasma ratio (Kpuu); conditions: male, Sprague Dawley, rat, iv, 1 mg/kg
Procedure: Male Sprague Dawley Rats 300-350 g (Charles River, UK) were group housed, n=2, under a 12 h light/dark cycle with food and water available ad libitum. Two days prior to dosing, animals were anaesthetised with inhaled isoflurane, and the right jugular vein was exposed and surgically cannulated. Animals were then housed singly for recovery, and throughout the remaining procedure. On the day of dosing animals were weighed, tail marked and dosed intravenously via the indwelling cannula with compound at 0.25 mg/kg in a volume of 3 mL/kg. Animals were culled at 15 min post dose via intravenous administration of pentobarbital. Post-mortem blood was withdrawn via cardiac puncture, and briefly stored in K2 EDTA blood tubes on ice before being spun at 14,000 g for 4 min at 4° C. Plasma was withdrawn into a 96 well plate, placed on dry ice and stored at −80° C. Brains were quickly dissected and placed on dry ice before storage at −80° C.
Following dosing of test compound (intravenous) to Male Sprague-Dawley Rats, animals are sacrificed at 15 min timepoint. Plasma is isolated from whole blood following cardiac exsanguination by centrifugal blood fractionation and whole brains isolated. Samples are stored on-ice and transferred to the Bioanalytical lab storage at −80° C. Bioanalysis of plasma and brain samples is performed as detailed below. […]
Samples were analysed by UPLC-MS/MS on either an AB Sciex API6500 QTrap or Waters TQ-S mass spectrometer using previously optimised analytical MRM (multiple reaction monitoring) methods, specific to the test compound.
The concentration of test compound in isolated samples was determined following analysis of the samples against the two replicates of the calibration line, injected before and after the sample set with an appropriate regression and weighting used. Only calibrators within ±15% of the expected test concentration value were included in the calibration line (±20% at the LLoQ) and any samples that fell outside of the limits of the calibration line were deemed to be less than or above the limit of quantification (LLoQ/ALoQ). […]

RSK3 = target: T3, RSK3 (Homo sapiens, UniProt Q15349); test: RSK1-4 kinase assay (Eurofins KinaseProfiler, radiometric): RSK3; assay type: biochemical; conditions: approximately ATP Km
T3 construct: purchased Eurofins (KinaseProfiler service)
From the text: as §1

RSK2 = target: T4, RSK2 (Homo sapiens, UniProt P51812); test: RSK1-4 kinase assay (Eurofins KinaseProfiler, radiometric): RSK2; assay type: biochemical; conditions: approximately ATP Km
T4 construct: purchased Eurofins (KinaseProfiler service)
From the text: as §1

RSK1 = target: T5, RSK1 (Homo sapiens, UniProt Q15418); test: RSK1-4 kinase assay (Eurofins KinaseProfiler, radiometric): RSK1; assay type: biochemical; conditions: approximately ATP Km
T5 construct: purchased Eurofins (KinaseProfiler service)
From the text: as §1

human Chk2 kinase = human Chk2 kinase (Homo sapiens, UniProt O96017); test: biochemical
[3] = system: pChk1(Ser296) in SW620 cells; test: pChk1(Ser296) sandwich ELISA, cell-based on-target kinase activity; conditions: Homo sapiens, SW-620, neocarzinostatin 7.5 μM, 2 hours, read-out: SW620 pIC50 (converted)
Procedure: ELISA assays were performed as per the manufacturer's protocol. […] Selected compounds of the invention were tested as a 8-point concentration response up to a maximum concentration of either 1 μM, 3 μM or 10 μM. The percent (%) effect i.e. inhibition at each concentration of compound was calculated based on, and relative to, the amount of inhibition produced in the vehicle control and inhibited control wells contained within each plate.

GBM LN18 cells = test: In vitro cell viability assay (Cell Titre Glo, 72 hours); assay type: cell-based; conditions: Homo sapiens, LN-18, read-out: LN18 pIC50 (converted)
Summary of the method: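 LN18 glioblastoma cells were exposed to compound for 72 h in a 10-point concentration series up to 10 μM. Viability was read as cellular ATP by CellTiter-Glo luminescence, and % inhibition was calculated against the vehicle and inhibited control wells on each plate.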

T1 sequence (Q9UK32 whole entry): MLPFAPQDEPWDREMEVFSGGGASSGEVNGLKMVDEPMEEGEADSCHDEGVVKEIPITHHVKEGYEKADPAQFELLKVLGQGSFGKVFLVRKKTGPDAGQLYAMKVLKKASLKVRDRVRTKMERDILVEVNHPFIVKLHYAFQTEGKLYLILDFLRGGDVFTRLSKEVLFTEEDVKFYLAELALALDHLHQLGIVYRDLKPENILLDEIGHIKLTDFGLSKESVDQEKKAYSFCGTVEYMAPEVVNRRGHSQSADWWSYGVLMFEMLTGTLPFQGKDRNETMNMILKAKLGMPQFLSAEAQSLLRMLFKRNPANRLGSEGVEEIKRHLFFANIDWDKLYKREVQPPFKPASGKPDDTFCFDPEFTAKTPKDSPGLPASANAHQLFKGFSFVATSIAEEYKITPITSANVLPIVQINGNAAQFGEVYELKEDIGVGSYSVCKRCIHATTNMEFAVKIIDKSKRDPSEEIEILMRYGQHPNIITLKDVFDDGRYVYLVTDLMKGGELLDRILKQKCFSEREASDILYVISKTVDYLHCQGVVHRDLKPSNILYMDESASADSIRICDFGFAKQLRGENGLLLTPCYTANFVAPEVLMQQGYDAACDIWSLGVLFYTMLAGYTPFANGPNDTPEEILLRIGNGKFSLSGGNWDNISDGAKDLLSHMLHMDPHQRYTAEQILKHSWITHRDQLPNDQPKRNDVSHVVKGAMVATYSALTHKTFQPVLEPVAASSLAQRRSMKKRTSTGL
T5 sequence (Q15418 whole entry): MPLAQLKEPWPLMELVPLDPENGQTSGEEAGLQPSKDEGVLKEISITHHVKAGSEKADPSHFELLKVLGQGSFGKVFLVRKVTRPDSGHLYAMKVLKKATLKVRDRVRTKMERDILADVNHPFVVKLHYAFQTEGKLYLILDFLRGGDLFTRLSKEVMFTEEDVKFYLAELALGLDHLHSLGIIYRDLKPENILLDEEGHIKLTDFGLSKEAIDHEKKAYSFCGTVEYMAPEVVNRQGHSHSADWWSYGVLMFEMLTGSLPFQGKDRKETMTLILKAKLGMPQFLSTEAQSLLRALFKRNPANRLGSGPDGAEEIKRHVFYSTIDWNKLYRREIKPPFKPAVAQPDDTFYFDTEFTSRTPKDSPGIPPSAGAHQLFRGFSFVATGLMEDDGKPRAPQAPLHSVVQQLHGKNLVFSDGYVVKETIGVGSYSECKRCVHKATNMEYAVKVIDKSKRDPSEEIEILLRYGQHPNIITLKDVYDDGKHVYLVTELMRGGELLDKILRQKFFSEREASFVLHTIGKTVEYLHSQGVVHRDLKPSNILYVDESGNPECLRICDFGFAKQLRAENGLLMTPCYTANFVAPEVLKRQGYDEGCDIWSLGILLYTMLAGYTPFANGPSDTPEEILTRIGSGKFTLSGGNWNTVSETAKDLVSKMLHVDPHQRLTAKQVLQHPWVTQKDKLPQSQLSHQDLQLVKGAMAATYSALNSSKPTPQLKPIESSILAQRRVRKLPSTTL
T3 sequence (Q15349 whole entry): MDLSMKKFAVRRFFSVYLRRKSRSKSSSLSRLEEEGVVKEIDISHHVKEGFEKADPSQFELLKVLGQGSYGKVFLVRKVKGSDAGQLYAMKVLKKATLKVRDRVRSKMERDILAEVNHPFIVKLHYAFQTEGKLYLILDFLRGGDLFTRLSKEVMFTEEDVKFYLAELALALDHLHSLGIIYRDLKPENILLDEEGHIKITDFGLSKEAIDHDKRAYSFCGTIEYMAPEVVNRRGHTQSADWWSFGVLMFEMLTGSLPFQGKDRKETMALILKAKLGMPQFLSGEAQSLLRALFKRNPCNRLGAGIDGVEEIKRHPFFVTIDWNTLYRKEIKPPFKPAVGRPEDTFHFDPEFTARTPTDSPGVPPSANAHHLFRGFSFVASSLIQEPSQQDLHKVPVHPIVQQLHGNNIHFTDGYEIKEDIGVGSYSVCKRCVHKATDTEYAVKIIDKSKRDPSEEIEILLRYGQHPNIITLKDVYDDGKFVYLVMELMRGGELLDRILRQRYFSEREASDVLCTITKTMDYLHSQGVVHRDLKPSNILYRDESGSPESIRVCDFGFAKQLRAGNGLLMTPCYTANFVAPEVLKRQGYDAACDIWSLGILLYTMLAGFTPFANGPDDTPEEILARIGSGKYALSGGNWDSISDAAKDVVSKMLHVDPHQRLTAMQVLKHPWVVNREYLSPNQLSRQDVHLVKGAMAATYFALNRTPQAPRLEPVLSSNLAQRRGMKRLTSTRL
T4 sequence (P51812 whole entry): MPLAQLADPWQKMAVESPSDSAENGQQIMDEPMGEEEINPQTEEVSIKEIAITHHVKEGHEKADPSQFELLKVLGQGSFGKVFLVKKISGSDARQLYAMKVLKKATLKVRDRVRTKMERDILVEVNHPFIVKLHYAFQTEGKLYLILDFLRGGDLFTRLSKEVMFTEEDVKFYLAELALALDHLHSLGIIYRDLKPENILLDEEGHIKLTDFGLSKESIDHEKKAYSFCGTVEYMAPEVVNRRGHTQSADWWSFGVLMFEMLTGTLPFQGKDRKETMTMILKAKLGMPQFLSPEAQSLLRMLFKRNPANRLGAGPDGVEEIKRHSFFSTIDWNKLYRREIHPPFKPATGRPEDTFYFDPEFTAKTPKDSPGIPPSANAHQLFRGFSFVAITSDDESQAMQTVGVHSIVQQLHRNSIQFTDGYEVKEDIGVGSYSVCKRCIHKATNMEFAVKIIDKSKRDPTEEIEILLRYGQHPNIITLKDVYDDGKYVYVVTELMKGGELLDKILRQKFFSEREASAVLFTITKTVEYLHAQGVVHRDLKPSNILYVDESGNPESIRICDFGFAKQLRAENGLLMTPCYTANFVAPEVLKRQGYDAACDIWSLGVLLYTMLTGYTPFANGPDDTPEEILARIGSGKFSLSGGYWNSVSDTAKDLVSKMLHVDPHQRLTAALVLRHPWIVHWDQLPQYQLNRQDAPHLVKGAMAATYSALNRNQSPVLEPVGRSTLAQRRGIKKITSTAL
Sequence of human Chk2 kinase (O96017 whole entry): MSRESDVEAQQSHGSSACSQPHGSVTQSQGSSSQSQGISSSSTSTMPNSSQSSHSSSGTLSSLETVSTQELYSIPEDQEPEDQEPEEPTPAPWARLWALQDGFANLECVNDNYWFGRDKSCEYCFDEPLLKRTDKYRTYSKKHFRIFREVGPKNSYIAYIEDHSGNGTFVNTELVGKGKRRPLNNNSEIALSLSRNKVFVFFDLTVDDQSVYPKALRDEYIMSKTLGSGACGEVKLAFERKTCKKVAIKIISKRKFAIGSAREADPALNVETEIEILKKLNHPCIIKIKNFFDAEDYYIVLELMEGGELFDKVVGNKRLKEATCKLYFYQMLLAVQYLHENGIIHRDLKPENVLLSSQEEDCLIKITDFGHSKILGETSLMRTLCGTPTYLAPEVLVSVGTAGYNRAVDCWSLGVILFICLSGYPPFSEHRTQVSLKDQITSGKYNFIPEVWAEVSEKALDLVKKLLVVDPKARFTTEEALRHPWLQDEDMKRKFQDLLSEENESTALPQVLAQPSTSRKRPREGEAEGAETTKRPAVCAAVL

**Q.** Which results are given for CN1CCN(c2ccc(-n3cnc(Nc4cnc(C#N)cn4)c3)cc2)CC1 [Example 143, 5-((1-(4-(4-Methylpiperazin-1-yl)phenyl)-1H-imidazol-4-yl)amino)pyrazine-2-carbonitrile]?
**A.** IC50 (RSK4): > 10 µM; IC50 (human Chk1 kinase): 0.01 to 0.0316 µM; Number of 372 kinases inhibited relative to Chk1 IC50 Within 10-fold [1]: 3; Number of 372 kinases inhibited relative to Chk1 IC50 Within 100-fold [1]: 10; Kp uu at 0.25 h [2]: 0.4; IC50 (RSK3): 2.07 µM; IC50 (RSK2): 3.04 µM; IC50 (RSK1): 9.45 µM; IC50 (human Chk2 kinase): 10 to 100 µM

**Q.** What does the source list for C[C@@H]1C[C@@H](N2CCC2)CN1c1ccc(-n2cnc(Nc3cnc(C#N)cn3)c2)cc1 [Example 98, 5-((1-(4-((2R,4R)-4-(Azetidin-1-yl)-2-methylpyrrolidin-1-yl)phenyl)-1H-imidazol-4-yl)amino)pyrazine-2-carbonitrile]?
**A.** IC50 (RSK4): 2.47 µM; IC50 [3]: < 1 µM; IC50 (GBM LN18 cells): < 1 µM; Kp uu at 0.25 h [2]: 0.8; IC50 (RSK3): 0.651 µM; IC50 (RSK2): 0.786 µM; IC50 (RSK1): 3.55 µM
